According to PMC12363935, “Unc-51 Like Kinase 3 (ULK3) is essential for autophagy and cell survival in multiple myeloma” (Research Square, 2025):
“And” between values parts separate entries of the source, which are not always exact repeats. Equal values may be shown once.

Tested on: primary CD138+ MM cells
Assay: EMMA ex vivo platform, live cell imaging, 96 hours, collagen matrix with bone marrow stroma and patient plasma
Assay type: cell-based
Parameters: scale not given here
Excerpt: For clinical robustness, we tested the activity of MA9 in MM patient samples using our ex vivo mathematical myeloma advisor (EMMA) platform (Supplementary Table 1). […]
For these assays, we used a novel EMMA platform developed at Moffitt. Further details are included in the supplemental Materials. […]
400 Ex vivo drug sensitivity characterization
401 An ex vivo assay was used to quantify the chemosensitivity of primary MM cells. Fresh BM
402 aspirate cells were enriched for CD138+ expression using Miltenyi (Bergisch Gladbach, Germany)
MM cells (CD138+) were seeded in Corning
404 Cell BIND 384 well plates (Corning, NY) with collagen I and previously established human-
407 inactivated), penicillin/streptomycin, and patient-derived plasma (10%, freshly obtained from
409 added using a robotic plate handler so that every drug/combination was tested at 5 (fixed
410 concentration ratio, for combinations) concentrations (1:3 serial dilution) in two replicates.
411 Negative controls (supplemented growth media with and without the vehicle control dimethyl
412 sulfoxide [DMSO]) were included, as well as positive controls for each drug (cell line MM1.S at
413 highest drug concentration). Plates were placed in a motorized stage microscope (EVOS Auto FL,
414 Life Technologies, Carlsbad, CA) equipped with an incubator and maintained at 5% CO2 and 37
415 °C. […]
Digital image analysis computes the percent
418 viability of MM cells for each time point and experimental condition (drug and concentration)

For `CC(C)C[C@H](NC(=O)[C@H](Cc1ccccc1)NC(=O)c1cnccn1)B(O)O` [BTZ, bortezomib], which AUC (Pt648, LRMM) is on record?
The AUC was 48.724.

And the AUC (Pt652, LRMM)?
Its AUC is 65.980.

And the AUC (Pt655, LRMM)?
Its AUC is 29.968.

What about the AUC (Pt663, LRMM) of the same compound?
The AUC was 45.417.

What about the AUC (Pt665, LRMM) of the same compound?
Its AUC is 47.552.

And the AUC (Pt666, LRMM)?
The AUC was 37.470.

What about the AUC (Pt669, ERMM) of the same compound?
The AUC was 37.041.

What about the AUC (Pt672, NDMM) of the same compound?
The AUC was 45.751.

And the AUC (Pt677, NDMM)?
The AUC was 30.916 and 33.959.

And the AUC (Pt680, ERMM)?
The AUC was 39.728 and 39.652.

And the AUC (Pt685, ERMM)?
Its AUC is 34.249.

And the AUC (Pt689, NDMM)?
The AUC was 40.257.

What about the AUC (Pt691, LRMM) of the same compound?
The AUC was 38.965.

And the AUC (Pt693, SMOL)?
Its AUC is 87.905.

What about the AUC (Pt694, NDMM) of the same compound?
The AUC was 31.313.

And the AUC (Pt695, LRMM)?
Its AUC is 46.540.

And the AUC (Pt697, NDMM)?
The AUC was 44.112.

And the AUC (Pt700, NDMM)?
Its AUC is 42.763 and 44.093.

What about the AUC (Pt707, LRMM) of the same compound?
Its AUC is 60.814.

And the AUC (Pt737, MGUS)?
The AUC was 35.864.

And the AUC (Pt738, NDMM)?
Its AUC is 46.001.

What about the AUC (Pt740, SMOL) of the same compound?
The AUC was 32.547.

And the AUC (Pt745, NDMM)?
Its AUC is 47.650.

And the AUC (Pt852, NDMM)?
The AUC was 23.262.

And the AUC (Pt853, ERMM)?
Its AUC is 63.604 and 64.834.

What about the AUC (Pt856, NDMM) of the same compound?
The AUC was 36.749.

What about the AUC (Pt866, NDMM) of the same compound?
The AUC was 36.635.

What about the AUC (Pt875, NDMM) of the same compound?
Its AUC is 45.303.

And the AUC (Pt888, LRMM)?
Its AUC is 100.000.

What about the AUC (Pt893, LRMM) of the same compound?
Its AUC is 100.000.

And the AUC (Pt899, SMOL)?
Its AUC is 59.818.

What about the AUC (Pt906, NDMM) of the same compound?
Its AUC is 59.784.

What about the AUC (Pt909, LRMM) of the same compound?
The AUC was 29.196.

What about the AUC (Pt912, PCL) of the same compound?
Its AUC is 26.800.

What about the AUC (Pt917, LRMM) of the same compound?
The AUC was 78.984.

And the AUC (Pt920, LRMM)?
Its AUC is 42.040.

What about the AUC (Pt923, LRMM) of the same compound?
The AUC was 45.019.

And the AUC (Pt932, LRMM)?
The AUC was 28.145.

And the AUC (Pt933, LRMM)?
Its AUC is 39.573.

And the AUC (Pt935, NDMM)?
Its AUC is 31.629.

What about the AUC (Pt936, LRMM) of the same compound?
Its AUC is 45.292.

And the AUC (Pt937, NDMM)?
The AUC was 46.111 and 46.768.

And the AUC (Pt940, LRMM)?
The AUC was 43.043.

What about the AUC (Pt956, NDMM) of the same compound?
Its AUC is 64.107 and 61.177.

And the AUC (Pt957, LRMM)?
The AUC was 82.570.

What about the AUC (Pt961, NDMM) of the same compound?
Its AUC is 70.805 and 67.849.

With `CC(C)C[C@H](NC(=O)[C@H](CCc1ccccc1)NC(=O)CN1CCOCC1)C(=O)N[C@@H](Cc1ccccc1)C(=O)N[C@@H](CC(C)C)C(=O)[C@@]1(C)CO1` [CFZ, carfilzomib] as the compound, how does the AUC (Pt620, NDMM) read?
Its AUC is 36.78.

And the AUC (Pt622, LRRMM)?
Its AUC is 32.89.

What about the AUC (Pt625, NDMM) of the same compound?
Its AUC is 36.25.

And the AUC (Pt636, ERRMM)?
Its AUC is 53.52.

And the AUC (Pt638, NDMM)?
The AUC was 44.52.

What about the AUC (Pt639, NDMM) of the same compound?
The AUC was 52.97.

What about the AUC (Pt648, LRMM) of the same compound?
Its AUC is 48.435.

What about the AUC (Pt652, LRMM) of the same compound?
The AUC was 67.924.

What about the AUC (Pt653, LRMM) of the same compound?
Its AUC is 60.160.

What about the AUC (Pt655, LRMM) of the same compound?
The AUC was 37.063 and 37.06.

What about the AUC (Pt663, LRMM) of the same compound?
The AUC was 48.477 and 48.48.

And the AUC (Pt665, LRMM)?
The AUC was 52.826 and 52.83.

And the AUC (Pt666, LRMM)?
The AUC was 40.984 and 40.98.

And the AUC (Pt669, ERMM)?
Its AUC is 48.58.

And the AUC (Pt672, NDMM)?
Its AUC is 56.496 and 56.5.

And the AUC (Pt677, NDMM)?
The AUC was 38.487 and 37.936.

What about the AUC (Pt680, ERMM) of the same compound?
The AUC was 43.762 and 43.248 and 43.76.

And the AUC (Pt685, ERMM)?
Its AUC is 44.316 and 44.32.

What about the AUC (Pt689, NDMM) of the same compound?
Its AUC is 43.578.

What about the AUC (Pt691, LRMM) of the same compound?
Its AUC is 40.781 and 40.78.

What about the AUC (Pt693, SMOL) of the same compound?
Its AUC is 97.333 and 97.33.

And the AUC (Pt694, NDMM)?
Its AUC is 49.029 and 49.03.

And the AUC (Pt695, LRMM)?
Its AUC is 54.535 and 54.53.

What about the AUC (Pt697, NDMM) of the same compound?
Its AUC is 45.229 and 45.23.

What about the AUC (Pt700, NDMM) of the same compound?
The AUC was 48.455 and 54.337 and 54.34.

What about the AUC (Pt707, LRMM) of the same compound?
Its AUC is 60.754 and 60.75.

What about the AUC (Pt718, SMOL) of the same compound?
Its AUC is 58.31.

And the AUC (Pt737, MGUS)?
Its AUC is 45.483.

And the AUC (Pt738, NDMM)?
Its AUC is 52.453 and 52.45.

What about the AUC (Pt740, SMOL) of the same compound?
Its AUC is 45.352.

And the AUC (Pt745, NDMM)?
The AUC was 68.911.

What about the AUC (Pt765, LRRMM) of the same compound?
Its AUC is 59.77.

What about the AUC (Pt773, LRRMM) of the same compound?
Its AUC is 32.99.

What about the AUC (Pt808, LRRMM) of the same compound?
The AUC was 47.11.

And the AUC (Pt814, LRRMM)?
The AUC was 62.23.

What about the AUC (Pt821, NDMM) of the same compound?
The AUC was 54.79.

And the AUC (Pt822, ERRMM)?
The AUC was 62.96.

What about the AUC (Pt825, NDMM) of the same compound?
Its AUC is 59.86.

And the AUC (Pt830, ERRMM)?
Its AUC is 61.41.

And the AUC (Pt849, LRRMM)?
Its AUC is 99.06.

What about the AUC (Pt852, NDMM) of the same compound?
Its AUC is 28.629.

And the AUC (Pt853, ERMM)?
The AUC was 62.247 and 58.956.

And the AUC (Pt856, NDMM)?
The AUC was 48.272 and 48.27.

What about the AUC (Pt865, LRMM) of the same compound?
The AUC was 60.759 and 60.76.

And the AUC (Pt866, NDMM)?
The AUC was 75.161 and 75.16.

And the AUC (Pt875, NDMM)?
The AUC was 41.904 and 41.9.

What about the AUC (Pt885, NDMM) of the same compound?
The AUC was 51.382 and 45.860 and 51.38.

What about the AUC (Pt888, LRMM) of the same compound?
The AUC was 51.003 and 51.

And the AUC (Pt893, LRMM)?
The AUC was 92.226.

What about the AUC (Pt899, SMOL) of the same compound?
The AUC was 53.140.

And the AUC (Pt906, NDMM)?
The AUC was 58.079 and 58.08.

What about the AUC (Pt909, LRMM) of the same compound?
The AUC was 32.841.

What about the AUC (Pt912, PCL) of the same compound?
The AUC was 23.632.

What about the AUC (Pt917, LRMM) of the same compound?
The AUC was 75.009.

And the AUC (Pt920, LRMM)?
The AUC was 39.820.

What about the AUC (Pt923, LRMM) of the same compound?
Its AUC is 54.728 and 54.73.

And the AUC (Pt932, LRMM)?
Its AUC is 43.433.

And the AUC (Pt933, LRMM)?
The AUC was 54.495 and 54.49.

What about the AUC (Pt935, NDMM) of the same compound?
Its AUC is 46.326 and 46.33.

What about the AUC (Pt936, LRMM) of the same compound?
Its AUC is 50.956.

What about the AUC (Pt937, NDMM) of the same compound?
Its AUC is 51.703 and 49.814.

What about the AUC (Pt940, LRMM) of the same compound?
Its AUC is 63.001.

And the AUC (Pt945, LRMM)?
The AUC was 53.027.

And the AUC (Pt948, LRMM)?
Its AUC is 57.94.

And the AUC (Pt951, ERMM)?
The AUC was 62.878 and 62.88.

What about the AUC (Pt956, NDMM) of the same compound?
The AUC was 68.610 and 64.376.

And the AUC (Pt957, LRMM)?
The AUC was 82.913.

And the AUC (Pt961, NDMM)?
Its AUC is 64.332 and 67.807.
